According to patent US20190343846A1, “PREPARATION OF SOLID CYCLODEXTRIN COMPLEXES FOR OPHTHALMIC ACTIVE PHARMACEUTICAL INGREDIENT DELIVERY” (OCULIS SA, priority 2016, published 2019):
In brackets after ≈: the same amount, converted by molar mass. One block for each compound: values may come before it.

Experiments:
[1] = Solubility of kinase inhibitors in pure water (S0) from phase-solubility profiles; format: physicochemical; details: for solubility: 25 °C, water, thermodynamic from solid, read-out: S0 (mg/mL), solubility in pure water
Description: (§1) Kinase inhibitors were suspended in aqueous solutions containing from 1% (w/v) to 15% (w/v) γ-cyclodextrin.

[2] = Stability constant (K1:1) of active pharmaceutical ingredient/γ-cyclodextrin complexes from phase-solubility profiles; format: physicochemical; details: initial linear part of phase-solubility profile
Description: as §1

[3] = Solubility of kinase inhibitors in aqueous γ-cyclodextrin media; format: physicochemical; details: aqueous with cosolvent or surfactant or cyclodextrin, thermodynamic from solid
Method: Kinase inhibitors were suspended in aqueous media consisting of pure water, aqueous γ-cyclodextrin solution, aqueous solution containing γ-cyclodextrin and tyloxapol (1% w/v), and aqueous eye drop medium containing γ-cyclodextrin, benzalkonium chloride (0.02% w/v), disodium edetate (0.10% w/v) and sodium chloride (0.05% w/v). The concentration of γ-cyclodextrin varied depending on the kinase inhibitor. The solubility was determined as described in Example 10.

[4] = 25° C.; cited from earlier work
[5] = aqueous eye drop medium with 4% w/v γ-cyclodextrin, eye drop medium: 4 % w/v γ-cyclodextrin, benzalkonium chloride 0.02%, disodium edetate 0.10%, sodium chloride 0.05%, read-out: Solubility (mg/mL) Eye drops
[6] = aqueous solution with 4 % w/v γ-cyclodextrin and tyloxapol (1% w/v), read-out: Solubility (mg/mL) Tyloxapol
[7] = aqueous γ-cyclodextrin solution, 4 % w/v γ-cyclodextrin, read-out: Solubility (mg/mL) γ-Cyclodextrin

solubility [1]: 0.0004 mg/mL (≈ 1.03 µM)
K1:1 (M^−1), stability constant of drug/γ-cyclodextrin complex [2]: 260 M⁻¹
solubility [3, 5]: 0.007 mg/mL (≈ 18.1 µM)
solubility [3, 6]: 0.008 mg/mL (≈ 20.7 µM)
solubility [3, 7]: 0.003 mg/mL (≈ 7.76 µM)
Structure (SMILES): CNC(=O)c1ccccc1Sc1ccc2c(/C=C/c3ccccn3)n[nH]c2c1 [Axitinib]

solubility [1]: 1.2 mg/mL (≈ 2660 µM)
K1:1 (M^−1), stability constant of drug/γ-cyclodextrin complex [2]: 23 M⁻¹
solubility ([3]; aqueous eye drop medium with 12% w/v γ-cyclodextrin, eye drop medium: 12 % w/v γ-cyclodextrin, benzalkonium chloride 0.02%, disodium edetate 0.10%, sodium chloride 0.05%, read-out: Solubility (mg/mL) Eye drops): 4.1 mg/mL (≈ 9100 µM)
solubility ([3]; aqueous solution with 12 % w/v γ-cyclodextrin and tyloxapol (1% w/v), read-out: Solubility (mg/mL) Tyloxapol): 2.8 mg/mL (≈ 6220 µM)
solubility ([3]; aqueous γ-cyclodextrin solution, 12 % w/v γ-cyclodextrin, read-out: Solubility (mg/mL) γ-Cyclodextrin): 2 mg/mL (≈ 4440 µM)
Structure (SMILES): COc1cc2c(Oc3ccc4[nH]c(C)cc4c3F)ncnc2cc1OCCCN1CCCC1 [Cediranib]

S0 (mg/mL), solubility in pure water [1]: 0.006 mg/mL
K1:1 (M^−1), stability constant of drug/γ-cyclodextrin complex [2]: 680 M⁻¹
Structure (SMILES): CN1CCN(c2ccc3nc(-c4c(N)c5c(F)cccc5[nH]c4=O)[nH]c3c2)CC1 [Dovitinib]

solubility [1]: 0.014 mg/mL (≈ 37.5 µM)
K1:1 (M^−1), stability constant of drug/γ-cyclodextrin complex [2]: 140 M⁻¹
solubility ([3]; aqueous eye drop medium with 8% w/v γ-cyclodextrin, eye drop medium: 8 % w/v γ-cyclodextrin, benzalkonium chloride 0.02%, disodium edetate 0.10%, sodium chloride 0.05%, read-out: Solubility (mg/mL) Eye drops): 0.07 mg/mL (≈ 187 µM)
solubility ([3]; aqueous solution with 8 % w/v γ-cyclodextrin and tyloxapol (1% w/v), read-out: Solubility (mg/mL) Tyloxapol): 0.04 mg/mL (≈ 107 µM)
solubility ([3]; aqueous γ-cyclodextrin solution, 8 % w/v γ-cyclodextrin, read-out: Solubility (mg/mL) γ-Cyclodextrin): 0.09 mg/mL (≈ 241 µM)
Structure (SMILES): CC1(C)CNc2cc(NC(=O)c3cccnc3NCc3ccncc3)ccc21 [Motesanib]

solubility [1]: 0.0006 mg/mL (≈ 1.37 µM)
K1:1 (M^−1), stability constant of drug/γ-cyclodextrin complex [2]: 13 M⁻¹
solubility ([3]; aqueous eye drop medium with 16% w/v γ-cyclodextrin, eye drop medium: 16 % w/v γ-cyclodextrin, benzalkonium chloride 0.02%, disodium edetate 0.10%, sodium chloride 0.05%, read-out: Solubility (mg/mL) Eye drops): 0.01 mg/mL (≈ 22.9 µM)
solubility ([3]; aqueous solution with 16 % w/v γ-cyclodextrin and tyloxapol (1% w/v), read-out: Solubility (mg/mL) Tyloxapol): 0.006 mg/mL (≈ 13.7 µM)
solubility ([3]; aqueous γ-cyclodextrin solution, 16 % w/v γ-cyclodextrin, read-out: Solubility (mg/mL) γ-Cyclodextrin): 0.007 mg/mL (≈ 16 µM)
Structure (SMILES): Cc1ccc(Nc2nccc(N(C)c3ccc4c(C)n(C)nc4c3)n2)cc1S(N)(=O)=O [Pazopanib]

solubility [1]: 0.0001 mg/mL (≈ 0.207 µM)
K1:1 (M^−1), stability constant of drug/γ-cyclodextrin complex [2]: 94 M⁻¹
solubility [3, 5]: 0.0008 mg/mL (≈ 1.66 µM)
solubility [3, 6]: 0.005 mg/mL (≈ 10.4 µM)
solubility [3, 7]: 0.0005 mg/mL (≈ 1.04 µM)
Structure (SMILES): CNC(=O)c1cc(Oc2ccc(NC(=O)Nc3ccc(Cl)c(C(F)(F)F)c3)c(F)c2)ccn1 [Regorafenib]

Structure (SMILES): OC[C@H]1O[C@@H]2O[C@H]3[C@H](O)[C@@H](O)[C@@H](O[C@H]4[C@H](O)[C@@H](O)[C@@H](O[C@H]5[C@H](O)[C@@H](O)[C@@H](O[C@H]6[C@H](O)[C@@H](O)[C@@H](O[C@H]7[C@H](O)[C@@H](O)[C@@H](O[C@H]1[C@H](O)[C@H]2O)O[C@@H]7CO)O[C@@H]6CO)O[C@@H]5CO)O[C@@H]4CO)O[C@@H]3CO [α-cyclodextrin]
solubility in pure water [4]: 129.5 ± 0.7 mg/mL (≈ 133000 µM)

Structure (SMILES): OC[C@H]1O[C@@H]2O[C@H]3[C@H](O)[C@@H](O)[C@@H](O[C@H]4[C@H](O)[C@@H](O)[C@@H](O[C@H]5[C@H](O)[C@@H](O)[C@@H](O[C@H]6[C@H](O)[C@@H](O)[C@@H](O[C@H]7[C@H](O)[C@@H](O)[C@@H](O[C@H]8[C@H](O)[C@@H](O)[C@@H](O[C@H]9[C@H](O)[C@@H](O)[C@@H](O[C@H]1[C@H](O)[C@H]2O)O[C@@H]9CO)O[C@@H]8CO)O[C@@H]7CO)O[C@@H]6CO)O[C@@H]5CO)O[C@@H]4CO)O[C@@H]3CO [γ-cyclodextrin]
solubility in pure water [4]: 249.2 ± 0.2 mg/mL (≈ 192000 µM)
